Assay results as given in patent publication US8680242B2, “Plasminogen receptor, polypeptides and antibodies thereof” (priority 2008, dated 2014).
Ends that are not written are not given here.

B1: K5: plasminogen fragment within Val442-Asn790, kringle 5 and the latent protease domain (protein)
chain: VVAPPPVVLLPDVETPSEEDCMFGNGKGYRGKRATTVTGTPCQDWAAQEPHRHSIFTPETNPRAGLEKNYCRNPDGDVGGPWCYTTNPRKLYDYCDVPQCAAPSFDCGKPQVEPKKCPGRVVGGCVAHPHSWPWQVSLRTRFGMHFCGGTLISPEWVLTAAHCLEKSPRPSSYKVILGAHQEVNLEPHVQEIEVSRLFLEPTRKDIALLKLSSPAVITDKVIPACLPSPNYVVADRTECFITGWGETQGTFGAGLLKEAQLPVIENKVCNRYEFLNGRVQSTELCAGHLAGGTDSCQGDSGGPLVCFEKDKYILQGVTSWGLGCARPNKPGVYVRVSRFVTWIEGVMRN
B2: K1-3: plasminogen fragment Tyr79-Val337 or Tyr79-Val353, obtained by elastase digestion (protein)
chain: YLSECKTGNGKNYRGTMSKTKNGITCQKWSSTSPHRPRFSPATHPSEGLEENYCRNPDNDPQGPWCYTTDPEKRYDYCDILECEEECMHCSGENYDGKISKTMSGLECQAWDSQSPHAHGYIPSKFPNKNLKKNYCRNPDRELRPWCFTTDPNKRWELCDIPRCTTPPPSSGPTYQCLKGTGENYRGNVAVTVSGHTCQHWSAQTPHTHNRTPENFPCKNLDENYCRNPDGKRAPWCHTTNSQVRWEYCKIPSCDSSPV

Assays:
Plasminogen = molecular target: T1, Plasminogen (Homo sapiens, UniProt P00747); assay: Plasminogen binding to BSA-coupled C-terminal Plg-RKT peptide coated on microtiter wells, detected with anti-plasminogen MAb
T1 construct: host or cells: peptide is synthetic
T1 sequence (P00747 20-810 limits assumed): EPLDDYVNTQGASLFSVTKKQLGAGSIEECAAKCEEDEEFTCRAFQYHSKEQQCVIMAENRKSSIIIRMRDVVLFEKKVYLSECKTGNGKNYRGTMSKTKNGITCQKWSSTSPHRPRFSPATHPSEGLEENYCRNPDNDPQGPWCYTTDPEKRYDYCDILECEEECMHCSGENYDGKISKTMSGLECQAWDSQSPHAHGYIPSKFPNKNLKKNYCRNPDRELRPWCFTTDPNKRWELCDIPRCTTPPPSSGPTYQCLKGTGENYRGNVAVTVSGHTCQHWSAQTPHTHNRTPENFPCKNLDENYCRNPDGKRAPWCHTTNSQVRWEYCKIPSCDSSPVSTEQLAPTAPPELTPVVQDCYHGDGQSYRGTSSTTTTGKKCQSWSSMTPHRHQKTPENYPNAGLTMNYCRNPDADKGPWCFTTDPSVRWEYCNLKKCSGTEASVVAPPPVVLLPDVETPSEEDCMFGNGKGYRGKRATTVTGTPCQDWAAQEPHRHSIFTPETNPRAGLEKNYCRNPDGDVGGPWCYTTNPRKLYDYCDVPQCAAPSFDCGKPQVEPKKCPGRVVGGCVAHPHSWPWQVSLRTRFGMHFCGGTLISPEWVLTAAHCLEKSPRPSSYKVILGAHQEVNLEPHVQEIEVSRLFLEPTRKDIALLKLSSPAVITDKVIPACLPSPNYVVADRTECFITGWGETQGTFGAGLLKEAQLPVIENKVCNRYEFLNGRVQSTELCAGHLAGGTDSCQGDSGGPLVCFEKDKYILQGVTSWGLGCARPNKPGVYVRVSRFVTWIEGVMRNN
Text: Our isolation method was consistent with exposure of the carboxyl-terminus of Plg-RKT (with its carboxyl-terminal lysine) on the cell surface and also with the ability of the carboxyl-terminal domain to bind to plasminogen. For verification, we tested whether a synthetic peptide, corresponding to the C-terminus of Plg-RKT could bind plasminogen. The peptide, CEQSKLFSDK (SEQ ID NO: 33) corresponding to the ten C-terminal amino acids of Plg-RKT with cysteine substituted for R138) was coupled to bovine serum albumin (BSA) and then coated onto wells of microtiter plates at 10 μg/ml. The wells were blocked with 5% BSA. Plasminogen (0.2 μM) was incubated with the wells, followed by our anti-plasminogen MAb^36 and detection with HRP-conjugated goat anti-mouse IgG (Biosource, Camarillo, Calif.). Plasminogen bound to the peptide in a concentration dependent manner with 50% maximal binding achieved at a plasminogen concentration of ˜10 nM. The binding was specific because it was blocked in the presence of epsilon-aminocaproic acid (EACA), consistent with the ability of EACA to inhibit plasminogen binding to differentiated Hoxa9-ER4 cells. […] In controls for the detection method, O.D.490 values obtained using an isotype control antibody or in the absence of added plasminogen were <5% of the values for plasminogen binding to the BSA-coupled peptide detected with anti-plasminogen MAb.

biotinylated plasminogen = molecular target: T2, biotinylated plasminogen (Homo sapiens, UniProt P00747); assay: Direct binding of biotinylated plasminogen to immobilized peptide (streptavidin-HRP)
T2 construct: host or cells: peptide is synthetic
T2 sequence (P00747 20-810 limits assumed): as above
Experimental: (§1) Mab36Al2 or control rat IgG2A was incubated with the Plg-RKT polypeptide, CEQSKLFSDK (SEQ ID NO: 33), coupled to BSA and immobilized on microtiter wells. In these assays, 200 nM biotinylated plasminogen was then added and plasminogen binding was detected with streptavidin-HRP.
(§2) In other assays to define the ligand recognition specificity of Plg-RKT for plasminogen. the Plg-RKT polypeptide, CEQSKLFSDK (SEQ ID NO: 33), was coupled to microtiter wells. Plasminogen was directly biotinylated and then incubated with the immobilized peptide and detected with streptavidin-HRP, as above. […] (K1-3 is comprised of the plasminogen amino acid sequences, Tyr^79-Val^337 or Tyr^79-Val^353. K4 is contained within the plasminogen amino acid sequences, Val^354-Ala^439. K5-PD is contained within the plasminogen amino acid sequences, Val^442-Asn^790 and contains kringle 5 as well as the latent protease domain.)

[1] = tested on: plasminogen binding to the Plg-RKT polypeptide, CEQSKLFSDK (SEQ ID NO: 33); assay: Inhibition of biotinylated plasminogen binding to immobilized Plg-RKT C-terminal peptide (streptavidin-HRP); set-up: species or system mouse
Experimental: as §1
(§3) We tested the ability of a peptide, CEQSRFFIDK (SEQ ID NO: 34), corresponding to the C terminus of human Plg-RKT (residues 139-147), to inhibit the binding of biotinylated-plasminogen to the C-terminal peptide CEQSKLFSDK (SEQ ID NO: 33), of mouse Plg-RKT when CEQSKLFSDK (SEQ ID NO: 33), was coupled to BSA and immobilized to microtiter plates as described above. […] Thus, the interaction of plasminogen with the C-terminal peptide of Plg-RKT requires the presence of a C-terminal lysine residue.
as §2

[2] = molecular target: T3, plasminogen binding to the Plg-RKT polypeptide, CEQSKLFSDK (SEQ ID NO: 33) (Mus musculus, UniProt Q9D3P8, R138C); assay: as above; details: plasminogen domains from elastase digestion
T3 construct: host or cells: peptide is synthetic
Experimental: as §1, §3, §2

Molecule	inhibition of plasminogen binding to immobilized CEQSKLFSDK (in words) [1]	order of effectiveness in inhibiting plasminogen interaction with immobilized CEQSKLFSDK [2]	also measured
NCCCCCC(=O)O [epsilon-aminocaproic acid]			effect on plasminogen binding to the peptide CEQSKLFSDK (Plasminogen; in the presence of EACA): blocked
CEQSKLFSDK [CEQSKLFSDK]			biotinylated-Plg binding to the immobilized peptide (biotinylated plasminogen): concentration-dependent manner
CEQSRFFIDA [mutant peptide with the C-terminal K replaced with A, reference compound]	not affected		
CEQSRFFIDK [CEQSRFFIDK]	inhibited in a dose-dependent manner		
CEQSRFFIDK [peptide with R142 replaced with K, human C-terminal peptide with R142 replaced with K]	more effective competitor		
KDSFLKSQEC (listed as Mus musculus) [reverse peptide control, reference compound]			biotinylated-Plg binding to the immobilized peptide (biotinylated plasminogen): no biotinylated-Plg binding; nonspecific plasminogen binding, relative to binding to CEQSKLFSDK (Plasminogen; control peptide on wells): < 10%
Plg: plasminogen, precursor of plasmin with five kringle domains and a serine protease domain		Plg>K1-3>K5>K4	
B1		Plg>K1-3>K5>K4	
B2		Plg>K1-3>K5>K4	
